Reference: ChEMBL document CHEMBL1137296, “Subtle side-chain modifications of the hop phytoestrogen 8-prenylnaringenin result in distinct agonist/antagonist activity profiles for estrogen receptors alpha and beta” (J Med Chem, 2006)

Tests used:
[1] = molecular target: T1, Estrogen receptor (Homo sapiens) (UniProt P03372); conditions: Huh-7, filed as antagonist
T1 sequence (whole entry): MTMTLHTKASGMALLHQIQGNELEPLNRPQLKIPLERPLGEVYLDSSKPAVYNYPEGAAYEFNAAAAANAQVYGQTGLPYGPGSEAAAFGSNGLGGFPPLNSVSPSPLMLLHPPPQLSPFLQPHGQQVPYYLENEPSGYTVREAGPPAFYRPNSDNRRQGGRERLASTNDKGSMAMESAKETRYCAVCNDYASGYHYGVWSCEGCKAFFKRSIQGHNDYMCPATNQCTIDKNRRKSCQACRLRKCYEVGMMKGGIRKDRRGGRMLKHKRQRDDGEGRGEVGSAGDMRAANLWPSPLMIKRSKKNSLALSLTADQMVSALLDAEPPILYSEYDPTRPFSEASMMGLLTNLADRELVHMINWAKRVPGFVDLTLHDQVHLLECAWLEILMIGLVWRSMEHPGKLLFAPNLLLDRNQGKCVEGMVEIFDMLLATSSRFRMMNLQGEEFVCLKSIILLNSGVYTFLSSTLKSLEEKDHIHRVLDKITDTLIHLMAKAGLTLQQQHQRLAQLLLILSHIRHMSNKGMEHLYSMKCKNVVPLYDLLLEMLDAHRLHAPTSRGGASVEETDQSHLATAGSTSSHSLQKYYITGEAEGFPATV
Description: Antagonist activity on ERalpha-mediated transcription of ERE-luciferase reporter gene in human Huh7 cells relative to estradiol

[2] = molecular target: T2, Estrogen receptor (Homo sapiens, UniProt P03372)
T2 sequence (P03372 whole entry): T1 sequence (whole entry)
Description: Displacement of [3H]E2 from human recombinant ERalpha LBD by SPA

[3] = molecular target: Estrogen receptor beta (Homo sapiens, UniProt Q92731)
Estrogen receptor beta, sequence (Q92731 whole entry): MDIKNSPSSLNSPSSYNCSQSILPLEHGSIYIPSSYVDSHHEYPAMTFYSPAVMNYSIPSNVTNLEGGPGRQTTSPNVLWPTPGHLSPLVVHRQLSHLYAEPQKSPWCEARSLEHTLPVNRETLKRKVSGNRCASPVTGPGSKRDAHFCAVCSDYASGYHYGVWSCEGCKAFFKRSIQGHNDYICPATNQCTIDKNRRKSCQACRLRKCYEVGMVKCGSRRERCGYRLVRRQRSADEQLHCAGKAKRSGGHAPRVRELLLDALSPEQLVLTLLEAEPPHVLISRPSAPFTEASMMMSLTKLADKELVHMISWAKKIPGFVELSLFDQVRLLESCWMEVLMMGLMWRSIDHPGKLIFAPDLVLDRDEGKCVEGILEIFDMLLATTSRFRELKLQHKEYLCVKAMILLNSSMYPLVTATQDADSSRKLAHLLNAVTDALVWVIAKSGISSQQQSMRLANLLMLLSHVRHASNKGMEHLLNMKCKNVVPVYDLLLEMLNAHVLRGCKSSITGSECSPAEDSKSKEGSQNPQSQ
Description: Displacement of [3H]E2 from human recombinant ERbeta LBD by SPA

| Structure (SMILES) | Antagonist activity [1] | IC50 [2] [nM] | IC50 [3] [nM] |
| --- | --- | --- | --- |
| CCCCCCCCCc1c(O)cc(O)c2c1O[C@H](c1ccc(O)cc1)CC2=O | Partial antagonist | 436 | 113 |
| O=C1C[C@@H](c2ccc(O)cc2)Oc2c(Cc3ccccc3)c(O)cc(O)c21 |  | 503 | 244 |
| CC(C)CCc1c(O)cc(O)c2c1O[C@H](c1ccc(O)cc1)CC2=O |  | 140 | 59 |
| CCCCCCCc1c(O)cc(O)c2c1O[C@H](c1ccc(O)cc1)CC2=O | Partial antagonist | 392 | 69 |
| CC(C)Cc1c(O)cc(O)c2c1O[C@H](c1ccc(O)cc1)CC2=O |  | 80 | 37 |
| Cc1c(O)cc(O)c2c1O[C@H](c1ccc(O)cc1)CC2=O |  | 5250 | 863 |
| CC(C)(C)Cc1c(O)cc(O)c2c1O[C@H](c1ccc(O)cc1)CC2=O |  | 216 | 141 |
| CCCc1c(O)cc(O)c2c1O[C@H](c1ccc(O)cc1)CC2=O |  | 155 | 29 |
| CCCCCCCCCCCc1c(O)cc(O)c2c1O[C@H](c1ccc(O)cc1)CC2=O | Partial antagonist | 1020 | 421 |
| O=C1C[C@@H](c2ccc(O)cc2)Oc2cc(O)cc(O)c21 [NARINGENIN] |  | 75300 | 13500 |
| CCCCCc1c(O)cc(O)c2c1O[C@H](c1ccc(O)cc1)CC2=O |  | 383 | 97 |
